According to US8426463B2, “[((1R,2S,5R)-2-isopropyl-5-methyl-cyclohexanecarbonyl)-amino]-acetic acid isopropyl ester and related compounds and their use in therapy” (priority 2011, dated 2013):

How the values were obtained:
[1] = system: ocular surface (non-keratinized stratified epithelium); assay: Ocular surface bioassay: duration of cooling after towelette wipe on closed eyelids; format: in vivo, human
Protocol: Bioassay on Non-Keratinized Stratified Epithelium: Ocular Surface
For testing on the ocular surface, a towelette containing the test compound was used as the delivery unit. The test compound was dissolved first in absolute ethanol and then distilled water was added to form a standard 1 mg/mL solution in a 3 to 5% by weight ethanol-water solution. Three mL of the test solution was then added to a 0.4 g cotton rectangle (50 mm×60 mm) (CS-being, Daisan Cotton, Japan) and individually sealed with a vacuum apparatus (Foodsaver®, Jarden Corp.). Samples were stored in a freezer or refrigerator and thawed to room temperature before use. Wiping with the cotton pad delivers 40 to 45 μL of liquid composition to the closed eyelids (˜20 to 22 μL per eye surface). Thus, if the concentration of the test compound was 1 mg/mL, the dose delivered to both eyes is a total of ˜40 to 42 μg, or ˜20 μg per eye. The presence or absence of cooling sensations felt on the ocular surface was noted as being present or absent at 5 to 10 minute intervals until no coolness was noticeable in two successive test intervals. Only the duration of cooling on the ocular surface was recorded, without an attempt to quantify the intensity of the sensation.

[2] = system: pharyngeal and esophageal receptors; assay: Cooling sensations in the chest after Gly-O-iPr with or without icilin; set-up: species or system human; details: in vivo
Excerpt: The cooling sensations in the chest that result from the Gly-O-iPr/icilin combination may provide symptomatic relief of discomfort in the airways (larynx, trachea, bronchi) in conditions such as asthma and COPD.

[3] = system: philtrum skin (keratinized stratified epithelium); assay: Philtrum assay: duration of cooling on keratinized stratified epithelium; format: in vivo, human; details: applied to the philtrum skin at 5 mg/mL in Aquaphor ointment
Excerpt: Bioassay on Keratinized Stratified Epithelium: Philtrum Assay
The philtrum is the midline groove above the border of the upper lip. The site of drug testing was the skin above the upper lip (above the vermilion border of the lips), on the philtrum, lateral to the philtrum until the nasolabial folds, and sometimes on the lower nostrils (subnasale). This part of the face is known to be densely innervated with cool/cold receptors, second only to the surfaces of the eyeball and anogenitalia. It is also known from the scientific literature that the area around the lips has a high density of “cold spots” (see, e.g., Dhaka et al., “Visualizing cold spots: TRPM8-expressing sensory neurons and their projections”, J. Neuroscience, Vol. 28, pp. 566-575, 2008).
To test for anti-nociceptive activity, the test substance is first dissolved (5 mg/mL) in an ointment (Aquaphor®, which is 41% petrolatum, and the rest mineral oil, ceresin and lanolin alcohol) and singly applied (40 to 70 mg) onto the philtrum skin surface using a plastic stick.
At this locus, cool and cold sensations in the skin may be experienced and rated for time of onset and intensity. The intensity of the subjective skin sensation is rated as 0, 1, 2 or 3 with: 0 as no change; 1 as slight coolness, or cold; 2 as clear-cut signal of coolness or cold; and 3 as robust cooling or cold. The intervals for recording are 5 to 10 minutes, until two successive zeroes are obtained. The onset of drug action is taken as the time to reach 2 units of coolness intensity, and offset of drug action is the time when coolness intensity drops below 2, after previously surpassing 2 units. The duration of cooling action is defined as the offset time minus the onset time.

[4] = system: Salmonella typhimurium tester strain TA1535; assay: Ames test in TA1535 with and without S9-mix (Notox)
[5] = system: dry, scratchy throat with cough; assay: Study 4: chewing gum and ODT in a subject with scratchy throat and cough; format: in vivo, human
Excerpt: A person's child moved away from their neighborhood to go to college and they became responsible for taking care of their two cats. Initially everything was all right, but then they became sensitized to the litter box dust generated when they were cleaning after the cats. They developed a dry, scratchy throat with cough, and this was severely aggravated by their seasonal allergy to grass pollen, so that they were constantly clearing their throat. […] After about two weeks of coughing and discomfort, they agreed to try Gly-O-iPr, first spread as 3 mg per wafer of Wrigley spearmint chewing gum, and then later formulated in an orally disintegrating tablet at 3 mg per unit dose. The medicated chewing gum and the ODT both provided relief within five minutes after administration. The sense of discomfort in the throat was attenuated and the effect lasted for about four hours and the dose could be repeated with the same beneficial effect. This individual preferred the ODT method of delivery as they considered this more efficient than chewing gum. After using the ODT containing Gly-O-iPr for ten days on an “as-needed basis” […] cough and scratchy throat disappeared and they are now well.

allergic conjunctivitis = assay: Study 3: eye wipes in a subject with allergic conjunctivitis; format: in vivo, human
Excerpt: A laboratory scientist suffered from seasonal allergic conjunctivitis. This condition was severely aggravated when […] started doing experiments with laboratory animals (rats and mice) and […] became sensitized to the associated allergens. The conjunctivitis was not relieved by oral or topical eye drops containing antihistamines and the subject was reluctant to consider the use of anti-inflammatory steroid ointments. Upon examination, their eyes were blood-shot and watery and they kept rubbing their eyelids with their fingers even though they knew this action may further aggravate the itch and discomfort. They volunteered to try eye wipes containing 1.0 mg/mL of Gly-O-iPr. The relief of itch and discomfort was obtained within 5 minutes and lasted for at least four hours.

[6] = 3 mg per chewing gum wafer or 3 mg ODT, one subject

CC(C)OC(=O)CNC(=O)[C@@H]1C[C@H](C)CC[C@H]1C(C)C [Gly-O-iPr, [((1R,2S,5R)-2-isopropyl-5-methyl-cyclohexanecarbonyl)-amino]-acetic acid isopropyl ester]
duration of cooling effect on the ocular surface, on average ([1]; 1 mg/mL): 5 h | Non-Keratinized Stratified Epithelia (NKSE) Ocular Surface (min), duration of cooling ([1]; applied to the closed eyelids using a towellette at 1 mg/mL in 5%-95% v/v ethanol-distilled water): 300 min | rank order of duration of action of ocular wipes ([1]; six subjects, randomized double-blind study, three trials per wipe): Gly-O-iPr>>Gly-O-nPr>Gly-O-Et | duration of cooling on the ocular surface ([1]; test concentration increased to 1.5 mg/mL): about 6.5 hours | cooling sensations in the chest [2]: less effective | Keratinized Stratified Epithelia Philtrum Skin (min), duration of cooling [3]: 27 min | mutagenic activity, conclusion ([4]; TA1535, 3 to 5000 μg/plate, absence and presence of S9-mix): not mutagenic | bacterial background lawn ([4]; any of the concentrations tested (3 to 5000 μg/plate)): not reduced | precipitation on the plates ([4]; top dose of 5000 μg/plate, dissolved in DMSO): did not precipitate | duration of attenuated throat discomfort [5, 6]: about four | time to relief after administration [5, 6]: five | cough and scratchy throat ([5]; ODT as needed for ten days): disappeared | time to relief of itch and discomfort (allergic conjunctivitis; eye wipes containing 1.0 mg/mL, one subject): ≤ 5 min | over-all itchiness and redness (allergic conjunctivitis; wipes as needed for three days): reduced significantly
